In this test the target is human muscarinic M3 receptor (Homo sapiens (Human), UniProt P20309). The test is described as follows: Binding assay on human muscarinic M3 receptor ([3H]-methyl scopolamine displacement). Particulars: membranes overexpressing human M3 receptor, Ki from IC50 by Cheng-Prusoff, read-out: Binding Affinity to M3 Receptor, Ki. The protocol: [Experimental Example 1] Binding Assay on Human Muscarinic M3 Receptor
Cell membrane proteins (Perkin Elmer) wherein human muscarinic M3 receptor was overexpressed, [^3H]-methyl scopolamine and test compounds in various concentration were cultured in 0.2 ml of Tris-HCl buffer at 25° C. for 120 minutes. The same was filtered under suction through glass fiber filter (Whatman GF/B), and then the filter was washed 5 times with 1 ml of Tris-HCl buffer. The radioactivity of [^3H]-methyl scopolamine adsorbed on the filter was measured by a liquid scintillation counter. Non-specific binding was evaluated under existence of 5 μM of atropine. Affinity of the compound of the present invention to muscarinic M3 receptor was calculated as the dissociation constant (Ki), which can be calculated from concentration (IC50) of test compounds inhibiting 50% of binding of [^3H]-methyl scopolamine (i.e. labeled ligand) according to Cheng and Prusoff [Cheng and Prusoff, Biochem. Pharmacol., 22, 3099, 1973].

human muscarinic M3 receptor, sequence (P20309 whole entry): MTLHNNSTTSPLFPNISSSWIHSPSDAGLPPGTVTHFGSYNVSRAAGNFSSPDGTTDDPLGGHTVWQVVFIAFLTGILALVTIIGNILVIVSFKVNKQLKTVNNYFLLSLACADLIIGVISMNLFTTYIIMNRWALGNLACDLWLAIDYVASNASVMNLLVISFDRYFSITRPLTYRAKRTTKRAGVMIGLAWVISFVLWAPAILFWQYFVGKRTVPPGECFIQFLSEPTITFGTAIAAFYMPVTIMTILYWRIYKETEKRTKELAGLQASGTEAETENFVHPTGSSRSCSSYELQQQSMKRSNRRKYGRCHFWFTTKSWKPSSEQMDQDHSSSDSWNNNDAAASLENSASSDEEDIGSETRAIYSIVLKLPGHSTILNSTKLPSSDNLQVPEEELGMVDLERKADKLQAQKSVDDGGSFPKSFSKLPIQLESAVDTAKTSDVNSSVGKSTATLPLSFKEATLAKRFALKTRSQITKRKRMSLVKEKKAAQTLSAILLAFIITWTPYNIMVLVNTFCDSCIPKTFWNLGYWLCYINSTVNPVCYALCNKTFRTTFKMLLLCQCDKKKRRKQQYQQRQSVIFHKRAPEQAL

Take `O=C(Nc1ccccc1-c1ccc(F)cc1)OCC1CCCN1` (stereo in doubt) [Example 88, (S)-pyrrolidin-2-ylmethyl (4′-fluoro-[1,1′-biphenyl]-2-yl)carbamate]: the Ki was determined as 99.7 nM.
The same measure for `COc1ccc(-c2ccccc2NC(=O)OCCC2CCCN2C)cc1` (stereo not drawn) [Example 5, 2-(1-methylpyrrolidin-2-yl)ethyl(4′-methoxy-[1,1′-biphenyl]-2-yl)carbamate]: 1100 nM.
The same measure for `CN1CCCC1CCOC(=O)Nc1ccccc1-c1ccc(Cl)cc1` (stereo not drawn) [Example 7, 2-(1-methylpyrrolidin-2-yl)ethyl(4′-chloro-[1,1′-biphenyl]-2-yl)carbamate]: 31.8 nM.
In the case of `CN1CCCC1CCOC(=O)Nc1ccccc1-c1ccc(OC(F)(F)F)cc1` (stereo not drawn) [Example 10, 2-(1-methylpyrrolidin-2-yl)ethyl(4′-trifluoromethoxy-[1,1′-biphenyl]-2-yl)carbamate] it was 401 nM.
Turning to `CN1CCCC1CCOC(=O)Nc1ccccc1-c1ccc([N+](=O)[O-])cc1` (stereo not drawn) [Example 11, 2-(1-methylpyrrolidin-2-yl)ethyl(4′-nitro-[1,1′-biphenyl]-2-yl)carbamate], the Ki was determined as 467 nM.
In the case of `CN1CCCC1CCOC(=O)Nc1ccccc1-c1cccc(C(F)(F)F)c1` (stereo not drawn) [Example 12, 2-(1-methylpyrrolidin-2-yl)ethyl(3′-trifluoromethyl-[1,1′-biphenyl]-2-yl)carbamate] it was 88 nM.
In the case of `CN1CCCC1CCOC(=O)Nc1ccccc1-c1ccc(C(F)(F)F)cc1` (stereo not drawn) [Example 13, 2-(1-methylpyrrolidin-2-yl)ethyl(4′-trifluoromethyl-[1,1′-biphenyl]-2-yl)carbamate] it was 80.1 nM; in that of `Cc1ccc(-c2ccccc2NC(=O)OCCC2CCCN2C)cc1F` (stereo not drawn) [Example 14, 2-(1-methylpyrrolidin-2-yl)ethyl((3′-fluoro-4′-methyl)-[1,1′-biphenyl]-2-yl)carbamate], 12.4 nM; in that of `CCOc1cccc(-c2ccccc2NC(=O)OCCC2CCCN2C)c1` (stereo not drawn) [Example 16, 2-(1-methylpyrrolidin-2-yl)ethyl(3′-ethoxy-[1,1′-biphenyl]-2-yl)carbamate], 1060 nM.
In the case of `CN1CCCC1CCOC(=O)Nc1ccc(F)cc1-c1cccc(F)c1` (stereo not drawn) [Example 18, 2-(1-methylpyrrolidin-2-yl)ethyl(3′,5-difluoro-[1,1′-biphenyl]-2-yl)carbamate] it was 6.98 nM; in that of `CN1CCCC1CCOC(=O)Nc1ccc(F)cc1-c1cc(F)cc(F)c1` (stereo not drawn) [Example 20, 2-(1-methylpyrrolidin-2-yl)ethyl(3′,5,5′-trifluoro-[1,1′-biphenyl]-2-yl)carbamate], 20.7 nM.
For `CN1CCCC1CCOC(=O)Nc1cc(F)ccc1-c1ccccc1` (stereo not drawn) [Example 23, 2-(1-methylpyrrolidin-2-yl)ethyl(4-fluoro-[1,1′-biphenyl]-2-yl)carbamate], the Ki worked out at 6.4 nM.
The same measure for `CN1CCCC1CCOC(=O)Nc1cc(F)ccc1-c1cccc(F)c1` (stereo not drawn) [Example 24, 2-(1-methylpyrrolidin-2-yl)ethyl(3′,4-difluoro-[1,1′-biphenyl]-2-yl)carbamate]: 31 nM.
As to `COc1ccc(-c2ccccc2)c(NC(=O)OCCC2CCCN2C)c1` (stereo not drawn) [Example 25, 2-(1-methylpyrrolidin-2-yl)ethyl(4-methoxy-[1,1′-biphenyl]-2-yl)carbamate], the Ki amounted to 115 nM.
The same measure for `Cc1ccc(NC(=O)OCCC2CCCN2C)c(-c2cccc(F)c2)c1` (stereo not drawn) [Example 27, 2-(1-methylpyrrolidin-2-yl)ethyl(3′-fluoro-5-methyl-[1,1′-biphenyl]-2-yl)carbamate]: 56.7 nM.
In the case of `CN1CCCC1CCOC(=O)Nc1ccccc1-c1ccc(C#N)cc1` (stereo not drawn) [Example 28, 2-(1-methylpyrrolidin-2-yl)ethyl(4′-cyano-[1,1′-biphenyl]-2-yl)carbamate] it was 845 nM.
The same measure for `CN1CCCC1CCOC(=O)Nc1ccccc1-c1cccc(CCCO)c1` (stereo not drawn) [Example 29, 2-(1-methylpyrrolidin-2-yl)ethyl(3′-(3-hydroxypropyl)-[1,1′-biphenyl]-2-yl)carbamate]: 931 nM; for `CN(C)c1ccc(-c2ccccc2NC(=O)OCCC2CCCN2C)cc1` (stereo not drawn) [Example 30, 2-(1-methylpyrrolidin-2-yl)ethyl(4′-(dimethylamino)-[1,1′-biphenyl]-2-yl)carbamate]: 830 nM.
Consider `CN1CCCC1CCOC(=O)Nc1ccccc1-c1ccc(C(C)(C)C)cc1` (stereo not drawn) [Example 31, 2-(1-methylpyrrolidin-2-yl)ethyl(4′-(tert-butyl)-[1,1′-biphenyl]-2-yl)carbamate], for which the Ki is 311 nM.
As for `CN1CCCC1CCOC(=O)Nc1ccccc1-c1ccccc1N` (stereo not drawn) [Example 32, 2-(1-methylpyrrolidin-2-yl)ethyl(2′-amino-[1,1′-biphenyl]-2-yl)carbamate], the Ki is > 1000 nM.
In the case of `CN1CCCC1CCOC(=O)Nc1ccccc1-c1cccc(N)c1` (stereo not drawn) [Example 33, 2-(1-methylpyrrolidin-2-yl)ethyl(3′-amino-[1,1′-biphenyl]-2-yl)carbamate] it was 16.8 nM; in that of `CN1CCCC1CCOC(=O)Nc1ccccc1-c1ccccc1Cl` (stereo not drawn) [Example 35, 2-(1-methylpyrrolidin-2-yl)ethyl(2′-chloro-[1,1′-biphenyl]-2-yl)carbamate], 435 nM; in that of `CN1CCCC1CCOC(=O)Nc1ccccc1-c1ccccc1O` (stereo not drawn) [Example 36, 2-(1-methylpyrrolidin-2-yl)ethyl(2′-hydroxy-[1,1′-biphenyl]-2-yl)carbamate], > 1000 nM.
The same measure for `Cc1cc(-c2ccccc2NC(=O)OCCC2CCCN2C)cc(C(C)(C)C)c1` (stereo not drawn) [Example 37, 2-(1-methylpyrrolidin-2-yl)ethyl(3′-tert-butyl-5′-methyl-[1,1′-biphenyl]-2-yl)carbamate]: > 1000 nM; for `CN1CCCC1CCOC(=O)Nc1ccccc1-c1ccc(F)c(C(F)(F)F)c1` (stereo not drawn) [Example 38, 2-(1-methylpyrrolidin-2-yl)ethyl(4′-fluoro-3′-(trifluoromethyl)-[1,1′-biphenyl]-2-yl)carbamate]: 574 nM.
In the case of `CN1CCCC1CCOC(=O)Nc1ccccc1-c1ccc(N)c(Cl)c1` (stereo not drawn) [Example 39, 2-(1-methylpyrrolidin-2-yl)ethyl(4′-amino-3′-chloro-[1,1′-biphenyl]-2-yl)carbamate] it was 28 nM.
As for `CN1CCCC1CCOC(=O)Nc1ccccc1-c1cccc(O)c1` (stereo not drawn) [Example 40, 2-(1-methylpyrrolidin-2-yl)ethyl(3′-hydroxy-[1,1′-biphenyl]-2-yl)carbamate], the Ki is 119 nM.
In the case of `CCc1cccc(-c2cc(F)ccc2NC(=O)OCCC2CCCN2C)c1` (stereo not drawn) [Example 44, 2-(1-methylpyrrolidin-2-yl)ethyl(3′-ethyl-5-fluoro-[1,1′-biphenyl]-2-yl)carbamate] it was 95.5 nM; in that of `Cc1cc(C)cc(-c2cc(F)ccc2NC(=O)OCCC2CCCN2C)c1` (stereo not drawn) [Example 45, 2-(1-methylpyrrolidin-2-yl)ethyl(5-fluoro-3′,5′-dimethyl-[1,1′-biphenyl]-2-yl)carbamate], 69.6 nM; in that of `CN1CCCC1CCOC(=O)Nc1ccc(F)cc1-c1cccc(N)c1` (stereo not drawn) [Example 46, 2-(1-methylpyrrolidin-2-yl)ethyl(3′-amino-5-fluoro-[1,1′-biphenyl]-2-yl)carbamate], 37.5 nM.
Regarding `CN1CCCC1CCOC(=O)Nc1ccc(C(F)(F)F)cc1-c1ccccc1` (stereo not drawn) [Example 47, 2-(1-Methylpyrrolidin-2-yl)ethyl(5-(trifluoromethyl)-[1,1′-biphenyl]-2-yl)carbamate], the Ki is 136 nM.
`CN1CCCC1CCOC(=O)Nc1ccc(C(F)(F)F)cc1-c1ccc(F)cc1` (stereo not drawn) [Example 48, 2-(1-Methylpyrrolidin-2-yl)ethyl(4′-fluoro-5-(trifluoromethyl)-[1,1′-biphenyl]-2-yl)carbamate]: the inhibition constant Ki was 258 nM.
On to `CN1CCCC1CCOC(=O)Nc1ccc(C(F)(F)F)cc1-c1cccc(F)c1` (stereo not drawn) [Example 49, 2-(1-Methylpyrrolidin-2-yl)ethyl(3′-fluoro-5-(trifluoromethyl)-[1,1′-biphenyl]-2-yl)carbamate], for which the Ki was 303 nM.
The same measure for `CN1CCCC1CCOC(=O)Nc1ccc(C(F)(F)F)cc1-c1cc(F)cc(F)c1` (stereo not drawn) [Example 50, 2-(1-Methylpyrrolidin-2-yl)ethyl (3′,5′-difluoro-5-(trifluoromethyl)-[1,1′-biphenyl]-2-yl)carbamate]: > 1000 nM; for `CN1CCCC1CCOC(=O)Nc1ccc(C(F)(F)F)cc1-c1cccc(Cl)c1` (stereo not drawn) [Example 51, 2-(1-Methylpyrrolidin-2-yl)ethyl(3′-chloro-5-(trifluoromethyl)-[1,1′-biphenyl]-2-yl)carbamate]: 101 nM; for `CN1CCCC1CCOC(=O)Nc1ccc(F)cc1-c1ccc(Cl)c(F)c1` (stereo not drawn) [Example 54, 2-(1-methylpyrrolidin-2-yl)ethyl(4′-chloro-3′,5-difluoro-[1,1′-biphenyl]-2-yl)carbamate]: 126 nM.
The same measure for `CN1CCCC1CCOC(=O)Nc1ccc(F)cc1-c1cc(Cl)cc(Cl)c1` (stereo not drawn) [Example 55, 2-(1-methylpyrrolidin-2-yl)ethyl(3′,5′-dichloro-5-fluoro-[1,1′-biphenyl]-2-yl)carbamate]: 38.8 nM; for `CN1CCCC1CCOC(=O)Nc1ccc(F)cc1-c1cc(O)cc(Cl)c1` (stereo not drawn) [Example 57, 2-(1-methylpyrrolidin-2-yl)ethyl(3′-chloro-5-fluoro-5′-hydroxy-[1,1′-biphenyl]-2-yl)carbamate]: 34.8 nM.
The same measure for `COc1ccc(NC(=O)OCCC2CCCN2C)c(-c2ccccc2)c1` (stereo not drawn) [Example 60, 2-(1-methylpyrrolidin-2-yl)ethyl(5-methoxy-[1,1′-biphenyl]-2-yl)carbamate]: 119 nM.

In general, Ki refers to a dissociation constant, usually derived from enzyme kinetics or from competition with a known ligand.
